Structures can show the parent of a compound that is named as a salt.
How the values were obtained:
Conditions in all cases: exposure time: 72 h
E28 [1] = patient-derived glioblastoma stem cells of classical subtype; assay: surviving fraction (nuclei count normalised to DMSO); higher = more cells surviving (less toxic)
FT3469 [2] = normal neural stem cell line; assay: as above
E13 [3] = patient-derived glioblastoma stem cells of classical subtype; assay: as above
E57 [4] = patient-derived glioblastoma stem cells of mesenchymal subtype; assay: as above
E34 [5] = patient-derived glioblastoma stem cells of proneural subtype; assay: as above
E21 [6] = patient-derived glioblastoma stem cells of mesenchymal subtype; assay: as above
E31 [7] = patient-derived glioblastoma stem cells of proneural subtype; assay: as above
E28 [8] = assay: phenotypic distance (Euclidean, principal components) from DMSO controls (arbitrary units); higher = stronger morphological change
FT3469 [9] = assay: as above
E13 [10] = assay: as above
E57 [11] = assay: as above
E34 [12] = assay: as above
E21 [13] = assay: as above
E31 [14] = assay: as above
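Wherever phenotypic distance (Euclidean, principal components) from DMSO controls is given: cell Painting imaging in 384-well plates, CellProfiler features reduced to at least 20 principal components, Euclidean distance versus same-plate DMSO vehicle wells (0.1% v/v), median over six images per well.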
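Wherever surviving fraction (nuclei count normalised to DMSO) is given: nuclei counted by high-content imaging of Hoechst-stained cells in laminin-coated 384-well plates, relative to 0.1% DMSO vehicle wells, with staurosporine as cell-death control.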

N=c1ccn2c(n1)O[C@H]1[C@H](O)[C@@H](CO)O[C@H]12 [Ancitabine hydrochloride]
Conditions	phenotypic distance	surviving fraction
E13 [3], 4.1 nM	–	0.857
E13 [3], 12.3 nM	–	0.724
E13 [3], 37 nM	–	0.884
E13 [3], 111.1 nM	–	0.812
E13 [3], 333.3 nM	–	0.716
E13 [3], 1000 nM	–	0.67
E13 [3], 3000 nM	–	0.49
E13 [10], 4.1 nM	1.7	–
E13 [10], 12.3 nM	1.23	–
E13 [10], 37 nM	1.32	–
E13 [10], 111.1 nM	1.29	–
E13 [10], 333.3 nM	2.15	–
E13 [10], 1000 nM	3.33	–
E13 [10], 3000 nM	5.43	–
E21 [6], 4.1 nM	–	0.896
E21 [6], 12.3 nM	–	0.889
E21 [6], 37 nM	–	0.909
E21 [6], 111.1 nM	–	0.832
E21 [6], 333.3 nM	–	0.693
E21 [6], 1000 nM	–	0.636
E21 [6], 3000 nM	–	0.422
E21 [13], 4.1 nM	1.35	–
E21 [13], 12.3 nM	1.44	–
E21 [13], 37 nM	1.87	–
E21 [13], 111.1 nM	2.14	–
E21 [13], 333.3 nM	3.95	–
E21 [13], 1000 nM	5.57	–
E21 [13], 3000 nM	6.36	–
E28 [1], 4.1 nM	–	0.837
E28 [1], 12.3 nM	–	1.18
E28 [1], 37 nM	–	0.826
E28 [1], 111.1 nM	–	0.886
E28 [1], 333.3 nM	–	0.687
E28 [1], 1000 nM	–	0.653
E28 [1], 3000 nM	–	0.482
E28 [8], 4.1 nM	2.22	–
E28 [8], 12.3 nM	2	–
E28 [8], 37 nM	1.29	–
E28 [8], 111.1 nM	1.66	–
E28 [8], 333.3 nM	1.88	–
E28 [8], 1000 nM	2.56	–
E28 [8], 3000 nM	2.87	–
E31 [7], 4.1 nM	–	0.978
E31 [7], 12.3 nM	–	0.749
E31 [7], 37 nM	–	0.721
E31 [7], 111.1 nM	–	0.594
E31 [7], 333.3 nM	–	0.669
E31 [7], 1000 nM	–	0.394
E31 [7], 3000 nM	–	0.176
E31 [14], 4.1 nM	1.4	–
E31 [14], 12.3 nM	1.46	–
E31 [14], 37 nM	1.63	–
E31 [14], 111.1 nM	2.22	–
E31 [14], 333.3 nM	2.92	–
E31 [14], 1000 nM	3.39	–
E31 [14], 3000 nM	3.87	–
E34 [5], 4.1 nM	–	0.976
E34 [5], 12.3 nM	–	1.09
E34 [5], 37 nM	–	0.963
E34 [5], 111.1 nM	–	0.86
E34 [5], 333.3 nM	–	0.71
E34 [5], 1000 nM	–	0.689
E34 [5], 3000 nM	–	0.593
E34 [12], 4.1 nM	1.44	–
E34 [12], 12.3 nM	0.954	–
E34 [12], 37 nM	1.24	–
E34 [12], 111.1 nM	1.69	–
E34 [12], 333.3 nM	2.92	–
E34 [12], 1000 nM	3.78	–
E34 [12], 3000 nM	5.02	–
E57 [4], 4.1 nM	–	0.931
E57 [4], 12.3 nM	–	0.805
E57 [4], 37 nM	–	0.73
E57 [4], 111.1 nM	–	0.655
E57 [4], 333.3 nM	–	0.409
E57 [4], 1000 nM	–	0.321
E57 [4], 3000 nM	–	0.212
E57 [11], 4.1 nM	3.74	–
E57 [11], 12.3 nM	1.61	–
E57 [11], 37 nM	2.27	–
E57 [11], 111.1 nM	3.75	–
E57 [11], 333.3 nM	6.65	–
E57 [11], 1000 nM	7.84	–
E57 [11], 3000 nM	8.89	–
FT3469 [2], 4.1 nM	–	0.699
FT3469 [2], 12.3 nM	–	0.86
FT3469 [2], 37 nM	–	0.964
FT3469 [2], 111.1 nM	–	0.691
FT3469 [2], 333.3 nM	–	0.668
FT3469 [2], 1000 nM	–	0.679
FT3469 [2], 3000 nM	–	0.682
FT3469 [9], 4.1 nM	1.34	–
FT3469 [9], 12.3 nM	0.713	–
FT3469 [9], 37 nM	1.46	–
FT3469 [9], 111.1 nM	1.24	–
FT3469 [9], 333.3 nM	3.06	–
FT3469 [9], 1000 nM	2.47	–
FT3469 [9], 3000 nM	2.06	–

CCCCCC[C@H]1C(=O)O[C@H](C)[C@H](NC(=O)c2cccc(NC=O)c2O)C(=O)O[C@@H](C)[C@@H]1OC(=O)CC(C)C [Antimycin A]
Conditions	phenotypic distance	surviving fraction
E13 [3], 4.1 nM	–	0.562
E13 [3], 12.3 nM	–	0.544
E13 [3], 37 nM	–	0.546
E13 [3], 111.1 nM	–	0.571
E13 [3], 333.3 nM	–	0.512
E13 [3], 1000 nM	–	0.538
E13 [3], 3000 nM	–	0.416
E13 [10], 4.1 nM	2.21	–
E13 [10], 12.3 nM	2	–
E13 [10], 37 nM	1.93	–
E13 [10], 111.1 nM	2.18	–
E13 [10], 333.3 nM	2.6	–
E13 [10], 1000 nM	2.46	–
E13 [10], 3000 nM	3.04	–
E21 [6], 4.1 nM	–	0.588
E21 [6], 12.3 nM	–	0.629
E21 [6], 37 nM	–	0.542
E21 [6], 111.1 nM	–	0.55
E21 [6], 333.3 nM	–	0.594
E21 [6], 1000 nM	–	0.585
E21 [6], 3000 nM	–	0.494
E21 [13], 4.1 nM	3.65	–
E21 [13], 12.3 nM	3.44	–
E21 [13], 37 nM	4.09	–
E21 [13], 111.1 nM	3.93	–
E21 [13], 333.3 nM	3.39	–
E21 [13], 1000 nM	3.78	–
E21 [13], 3000 nM	3.71	–
E28 [1], 4.1 nM	–	0.8
E28 [1], 12.3 nM	–	0.561
E28 [1], 37 nM	–	0.625
E28 [1], 111.1 nM	–	0.585
E28 [1], 333.3 nM	–	0.506
E28 [1], 1000 nM	–	0.527
E28 [1], 3000 nM	–	0.521
E28 [8], 4.1 nM	0.765	–
E28 [8], 12.3 nM	1.08	–
E28 [8], 37 nM	1.34	–
E28 [8], 111.1 nM	1.41	–
E28 [8], 333.3 nM	1.38	–
E28 [8], 1000 nM	1.86	–
E28 [8], 3000 nM	1.87	–
E31 [7], 4.1 nM	–	0.793
E31 [7], 12.3 nM	–	0.864
E31 [7], 37 nM	–	0.779
E31 [7], 111.1 nM	–	0.683
E31 [7], 333.3 nM	–	0.721
E31 [7], 1000 nM	–	0.599
E31 [7], 3000 nM	–	0.661
E31 [14], 4.1 nM	1.51	–
E31 [14], 12.3 nM	1.62	–
E31 [14], 37 nM	1.68	–
E31 [14], 111.1 nM	1.91	–
E31 [14], 333.3 nM	2	–
E31 [14], 1000 nM	1.59	–
E31 [14], 3000 nM	1.73	–
E34 [5], 4.1 nM	–	0.771
E34 [5], 12.3 nM	–	0.666
E34 [5], 37 nM	–	0.745
E34 [5], 111.1 nM	–	0.619
E34 [5], 333.3 nM	–	0.717
E34 [5], 1000 nM	–	0.682
E34 [5], 3000 nM	–	0.652
E34 [12], 4.1 nM	1.81	–
E34 [12], 12.3 nM	2.11	–
E34 [12], 37 nM	1.7	–
E34 [12], 111.1 nM	2.19	–
E34 [12], 333.3 nM	2.19	–
E34 [12], 1000 nM	2.08	–
E34 [12], 3000 nM	1.39	–
E57 [4], 4.1 nM	–	0.694
E57 [4], 12.3 nM	–	0.642
E57 [4], 37 nM	–	0.581
E57 [4], 111.1 nM	–	0.515
E57 [4], 333.3 nM	–	0.61
E57 [4], 1000 nM	–	0.513
E57 [4], 3000 nM	–	0.466
E57 [11], 4.1 nM	2.07	–
E57 [11], 12.3 nM	3.56	–
E57 [11], 37 nM	4.06	–
E57 [11], 111.1 nM	4.75	–
E57 [11], 333.3 nM	4.39	–
E57 [11], 1000 nM	4.71	–
E57 [11], 3000 nM	5.22	–
FT3469 [2], 4.1 nM	–	0.95
FT3469 [2], 12.3 nM	–	0.895
FT3469 [2], 37 nM	–	0.872
FT3469 [2], 111.1 nM	–	0.823
FT3469 [2], 333.3 nM	–	0.719
FT3469 [2], 1000 nM	–	0.929
FT3469 [2], 3000 nM	–	0.659
FT3469 [9], 4.1 nM	0.791	–
FT3469 [9], 12.3 nM	1.47	–
FT3469 [9], 37 nM	1.52	–
FT3469 [9], 111.1 nM	1.43	–
FT3469 [9], 333.3 nM	1.68	–
FT3469 [9], 1000 nM	1.44	–
FT3469 [9], 3000 nM	1.34	–
